Measurements taken from US9073880B2, “2-(2-phenylethenyl) 1,3-benzodiazepine derivatives useful for the treatment of cancer” (Yissum Research Development Company of the Hebrew …, priority 2010, dated 2015).

Tests used:
[1] = system: human prostate carcinoma PC3 cells; experiment: Cell proliferation, PC3 (Example 2); type: cell-based; details: PC-3, 72 hours, 0.1% DMSO, methylene blue
Description: (§1) Human ovary cancer A2780 cells lines were seeded at a density of 5000 cells/well, human melanoma A375 cells were plated at a density of 2,500 cells/well, human colon carcinoma HCT15 cells were plated at a density of 3,000 cells/well, human prostate carcinoma PC3 cells were plated at a density of 1,500 cells/well, human breast carcinoma MCF7 cells were plated at a density of 5,000 cells/well, human breast carcinoma MDA MB 468 cells were plated at a density of 6,000 cells/well, human myeloma U266, RPMI8226 and CAG cells were plated at a density of 10,000 cells/well. All cells were plated in 96-well plates in 90 μl growth medium containing 10% FCS, 100 units/ml penicillin and 100 μg/ml streptomycin. Compound 3 was added a day later in […] of 1% DMSO in DDW to obtain final concentrations of 0, 0.1, 0.3, 1, 3, and 10 μM. The final concentration of DMSO (0.1% DMSO) was kept constant in all samples. […] The optical density values were read at 630 nm in ELISA plate reader. Non-adhered cells were exposed to WST-1 reagent for 5 hours following 72 hours treatment with the inhibitors, and optical density values were read at 630 nm in ELISA plate reader. The data was analyzed in Microsoft Excel, using the vehicle control as 100% proliferation. […]

human myeloma CAG cells = experiment: Cell proliferation, CAG (Example 2); type: cell-based; details: multiple myeloma, 72 hours, 0.1% DMSO, WST-1
Description: as §1

IRS1 and IRS2 = IRS1 and IRS2 serine phosphorylation in A375 cells (western blot); type: cell-based, human; details: melanoma A375 cells treated 4 hr, 1 and 3 μM; FIG. 4
Description: Tyrosine autophosphorylation of the β-subunit of IGF-1R as well as downstream signaling induced by IGF-1R were assayed in human breast cancer MCF7 cells and in melanoma A375 cells. Cells were seeded in 6-well plates (250,000 A375 cells/well and 300,000 MCF7 cells/well) and 24 hours later medium was replaced by serum-free medium (RPMI supplemented with 100 units/ml penicillin and 100 μg/ml streptomycin). MCF7 cells were exposed for 48 hr to compound 3 at 10 μM concentration, and then stimulated for 5 minutes with 50 ng/ml IGF-1, washed twice with PBS and lysed by boiling sample buffer (10% glycerol, 50 mM Tris-HCl, pH 6.8, 3% SDS, and 5% (3-mercaptoethanol). Equal amounts of protein per lane were separated by 8% SDS-PAGE and transferred to a nitrocellulose membrane (Sartorius AG). Phosphorylated proteins were immunoblotted with anti-phosphoIGF-1R (pIGF-1R), anti-phosphotyrosine-IRS1 (pY-IRS I) and anti-phospho(T308)Akt (pPKB) antibodies. Detection was performed with horseradish peroxidase-conjugated secondary antibody using the ECL system. […]
In addition, lysates of human melanoma A375 cells were prepared from cells exposed to compound 3 at 1 and 3 μM concentrations in serum-free medium. […] In this experiment the phosphorylated form of IRS1 on Serine-636/639 and the levels of IRS2 were detected as well.

For `O=c1c(O)cc2cnc(/C=C/c3cc(O)c(O)c(Br)c3)sc-2c1O` [Compound 3], the IC50 [1] was 2000 nM, the IC50 (human myeloma CAG cells) was 1200 nM and the “IRS1 and IRS2 serine phosphorylation” value (IRS1 and IRS2) was “induction of IRS1 and IRS2 serine phosphorylation”.
